{"source": "patent US6455070B1", "about": "“Composition for treating symptoms of influenza” (East Park Research, Inc., priority 2001, dated 2002)", "origin": "cited, not measured here", "test_system": "wide variety of viruses", "conditions": "greatest activity under alkaline conditions (pH 7.5)"}
{"smiles": "COC(=O)C1=CO[C@@H](C)[C@@H](C=O)[C@@H]1CC(=O)[O-].COC(=O)C1=CO[C@@H](C)[C@@H](C=O)[C@@H]1CC(=O)[O-].[Ca+2]", "note": "[calcium elenolate]", "values": [{"measurement": "in vitro antiviral activity", "result": "activity against a wide variety of viruses"}]}
